One experiment relates to CD3+ T cells in tissues. The experiment is described as follows: CD3+ T cell frequency in intestine and LNs by immunofluorescence. The format is in vivo, rhesus macaques (Macaca mulatta). To be noted: for CD3+ T cells in superficial LNs, area fraction: average, pretreatment 30%, 7 mg/m^2. Here is the method: CD3^+ T cell frequency in the intestine and LNs was assessed through immunofluorescence (IF), as described ([55]). Fixed, paraffin-embedded tissues from the three RMs were cut and placed onto microscope slides. The slides were treated three times with xylene (Thermo Fisher Scientific), run through an ethanol battery, washed with dH2O, and placed into 1× PBS (Thermo Fisher Scientific). Slides were microwaved with Antigen Unmasking Solution (Vector Labs, Burlingame, CA) for antigen retrieval. Once slides had cooled, they were washed three times in 1× PBS and the tissues were circled with Immedge Pen (Vector Labs) to create a hydrophobic barrier. Dako Serum-Free Protein Block (Agilent, Santa Clara, CA) was added to the tissues. The Dako Protein Block was dumped off and the slides incubated with mouse α-CD3 (Agilent). The primary antibody was dumped off and slides washed in 1× PBS as previously noted. The remaining steps were completed in the dark. The slides were incubated with the secondary antibody, goat α-mouse (Alexa Fluor 488) (Invitrogen) followed by a subsequent 1× PBS wash. The slides were incubated with DAPI (Millipore Sigma, Burlington, MA), and then dumped off and washed with 1× PBS, followed by dH2O, and dried. Coverslips were then mounted to the slides with fluorescent mounting media (Agilent). Slides were visualized and imaged with Zeiss Imager M1 microscope and Axiovision software [V4.8.2.0 (Carl Zeiss AG, Oberkochen, Germany)]. Image quantifications were performed using the FIJI distribution ([56]) of ImageJ 1.52c ([57]), where positive fluorescent signals were isolated by setting color thresholds and the percent positive area was calculated.

In experiment [1] the test system is H3 and H4 histone acetylation in peripheral CD4+ and CD8+ T cells. The experiment is described as follows: Histone acetylation assay (flow cytometry). It is filed as in vivo, rhesus macaques (Macaca mulatta). To be noted: 7 mg/m^2 4-h IV infusion. Here is the method:
The efficacy of RMD treatment was assessed by monitoring histone acetylation of frozen PBMCs: at the baseline, 6 h postinfusion, and 1, 2, and 5 days postinfusion, using a flow-cytometrical method, as described ([41]). Briefly, separated PBMCs were stained for surface markers for 20 min with: CD3-APC-Cy7 (SP34-2), CD4-V500 (L200), CD8-PE (SK1), CD14-BV570 (M5E2) (BioLegend, San Diego, CA), CD28-PE-CF594 (CD28.2), CD69-BV421 (FN50), CD95-PE-Cy5 (DX2), PD-1-PE-Cy7 (EH12.2H7) (BioLegend); all antibodies were from BD Biosciences, unless otherwise stated. PBMCs were then lysed with PhosFlow Lyse/Fix buffer (BD Biosciences) for 30 min and permeabilized with Perm Buffer [0.4% Triton X-100 in PBA (Sigma)] for 10 min, followed by washing. Permeabilized PBMCs were stained with the following antibodies for intracellular markers: Ac-H4 (3HH4-2C2) (Active Motif, Carlsbad, CA, USA) and Ki-67-Alexa Flour 647 (BD Biosciences). Ac-H4 recognizes motifs on histones H3 and H4 and was conjugated to FITC using Zenon reagent kit (Invitrogen, Carlsbad, CA). Stained PBMCs were then washed, fixed with BD Stabilizing Fixative (BD Biosciences), and acquired with a LSR-II flow cytometer. Data were analyzed with FlowJo software.

Where only a bound is given, the exact number is not on record here.

With `C/C=C1\NC(=O)[C@H]2CSSCC/C=C/[C@H](CC(=O)N[C@H](C(C)C)C(=O)N2)OC(=O)[C@H](C(C)C)NC1=O` [RMD, romidepsin], the “CD3+ T cells in superficial LNs, area fraction” value in the experiment with CD3+ T cells in tissues (6 h postinfusion) came to 40%; in the experiment with CD3+ T cells in tissues (7 days postinfusion), 41%. In addition, the “CD3+ T cells in intestine, area fraction” value with CD3+ T cells in tissues (1 day postinfusion, three RMs, pretreatment 5.8%, not significant) stood at 7.6%. The “CD3+ T cells in mesenteric LNs, area fraction” value with CD3+ T cells in tissues (animal RM71, 1 day postinfusion, pretreatment 31%) is given as 43%; in the experiment on CD3+ T cells in tissues (animals RM32 and RM33, 1 day postinfusion vs pretreatment, p > 0.05), “virtually unchanged”. Besides, the “time of return of histone acetylation to near baseline level” value in experiment [1] (CD4+ and CD8+ T cells, all RMs) is on record as at most 5 days postinfusion. The results for the “time of peak H3/H4 histone acetylation in blood CD4+ and CD8+ T cells” value in experiment [1] (third RM (RM33)) and in experiment [1] (two of three RMs) were 1 day postinfusion and 6 h postinfusion, respectively.

Source of the values: article PMC7759686, “Pharmacokinetics and Immunological Effects of Romidepsin in Rhesus Macaques” (Frontiers in Immunology, 2020).
